Experimental data taken from patent publication US7521469B2, “Phosphinic amino acid compounds” (Les Laboratoires Servier, priority 2005, dated 2009).

Key:
[1] = molecular target: T1, ECE (recombinant human form of the isoform ECE-1c) (Homo sapiens, UniProt P42892); experiment: In vitro inhibitory effect on endothelin converting enzyme (ECE), quenched-fluorescence substrate; format: biochemical; settings: inhibitor incubated with enzyme 45 minutes; substrate Mca-Arg-Pro-Pro-Gly-Phe-Ser-Ala-Phc-Lys(Dnp)COOH 5 μM
T1 sequence (P42892 1-754 isoform P42892-3): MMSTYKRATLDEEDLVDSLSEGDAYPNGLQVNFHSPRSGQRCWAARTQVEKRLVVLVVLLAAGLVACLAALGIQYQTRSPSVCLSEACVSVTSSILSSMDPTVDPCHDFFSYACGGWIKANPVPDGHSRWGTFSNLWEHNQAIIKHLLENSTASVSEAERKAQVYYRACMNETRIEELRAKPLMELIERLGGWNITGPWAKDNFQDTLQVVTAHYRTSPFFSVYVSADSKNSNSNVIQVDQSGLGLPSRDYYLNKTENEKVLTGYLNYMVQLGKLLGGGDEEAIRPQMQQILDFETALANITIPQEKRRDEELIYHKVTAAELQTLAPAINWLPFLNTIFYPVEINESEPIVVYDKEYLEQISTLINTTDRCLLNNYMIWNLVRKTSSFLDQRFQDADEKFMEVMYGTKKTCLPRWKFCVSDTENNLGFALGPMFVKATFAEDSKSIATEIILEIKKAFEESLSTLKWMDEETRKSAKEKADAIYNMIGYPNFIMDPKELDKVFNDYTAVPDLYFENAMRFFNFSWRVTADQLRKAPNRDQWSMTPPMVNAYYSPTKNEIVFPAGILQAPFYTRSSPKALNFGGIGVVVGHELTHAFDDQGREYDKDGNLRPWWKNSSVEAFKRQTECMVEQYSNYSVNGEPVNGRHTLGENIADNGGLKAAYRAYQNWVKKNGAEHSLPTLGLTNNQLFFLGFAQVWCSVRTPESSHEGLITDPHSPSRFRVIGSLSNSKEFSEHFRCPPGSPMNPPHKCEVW
Method: (§1) In vitro inhibitory effect on angiotensin converting enzyme (ACE) and endothelin converting enzyme (ECE)
(§2) In order to compare their specificity, the compounds of the Examples were tested on 2 enzymes: ACE (recombinant human form) and ECE (recombinant human form of the isoform ECE-1c).
(§3) The tests were carried out in duplicate in 96-well plates. The inhibitor was incubated together with the enzyme for 45 minutes before the addition of a quenched-fluorescence substrate. The fluorescence emitted was detected and measured in a Fluoroscan Ascent plate reader (Thermo-Labsystems).
(§4) The fluorogenic substrates used are: Mca-Arg-Pro-Pro-Gly-Phe-Ser-Pro-DpaCOOH (5 μM) with ACE, and Mca-Arg-Pro-Pro-Gly-Phe-Ser-Ala-Phc-Lys(Dnp)COOH (5 μM; R&D Systems) with ECE.

[2] = molecular target: ACE (recombinant human form) (Homo sapiens, UniProt P12821); experiment: In vitro inhibitory effect on angiotensin converting enzyme (ACE), quenched-fluorescence substrate; format: biochemical; settings: inhibitor incubated with enzyme 45 minutes; substrate Mca-Arg-Pro-Pro-Gly-Phe-Ser-Pro-DpaCOOH 5 μM
Method: as §1, §2, §3, §4

Sequence of ACE (recombinant human form) (P12821 30-1306): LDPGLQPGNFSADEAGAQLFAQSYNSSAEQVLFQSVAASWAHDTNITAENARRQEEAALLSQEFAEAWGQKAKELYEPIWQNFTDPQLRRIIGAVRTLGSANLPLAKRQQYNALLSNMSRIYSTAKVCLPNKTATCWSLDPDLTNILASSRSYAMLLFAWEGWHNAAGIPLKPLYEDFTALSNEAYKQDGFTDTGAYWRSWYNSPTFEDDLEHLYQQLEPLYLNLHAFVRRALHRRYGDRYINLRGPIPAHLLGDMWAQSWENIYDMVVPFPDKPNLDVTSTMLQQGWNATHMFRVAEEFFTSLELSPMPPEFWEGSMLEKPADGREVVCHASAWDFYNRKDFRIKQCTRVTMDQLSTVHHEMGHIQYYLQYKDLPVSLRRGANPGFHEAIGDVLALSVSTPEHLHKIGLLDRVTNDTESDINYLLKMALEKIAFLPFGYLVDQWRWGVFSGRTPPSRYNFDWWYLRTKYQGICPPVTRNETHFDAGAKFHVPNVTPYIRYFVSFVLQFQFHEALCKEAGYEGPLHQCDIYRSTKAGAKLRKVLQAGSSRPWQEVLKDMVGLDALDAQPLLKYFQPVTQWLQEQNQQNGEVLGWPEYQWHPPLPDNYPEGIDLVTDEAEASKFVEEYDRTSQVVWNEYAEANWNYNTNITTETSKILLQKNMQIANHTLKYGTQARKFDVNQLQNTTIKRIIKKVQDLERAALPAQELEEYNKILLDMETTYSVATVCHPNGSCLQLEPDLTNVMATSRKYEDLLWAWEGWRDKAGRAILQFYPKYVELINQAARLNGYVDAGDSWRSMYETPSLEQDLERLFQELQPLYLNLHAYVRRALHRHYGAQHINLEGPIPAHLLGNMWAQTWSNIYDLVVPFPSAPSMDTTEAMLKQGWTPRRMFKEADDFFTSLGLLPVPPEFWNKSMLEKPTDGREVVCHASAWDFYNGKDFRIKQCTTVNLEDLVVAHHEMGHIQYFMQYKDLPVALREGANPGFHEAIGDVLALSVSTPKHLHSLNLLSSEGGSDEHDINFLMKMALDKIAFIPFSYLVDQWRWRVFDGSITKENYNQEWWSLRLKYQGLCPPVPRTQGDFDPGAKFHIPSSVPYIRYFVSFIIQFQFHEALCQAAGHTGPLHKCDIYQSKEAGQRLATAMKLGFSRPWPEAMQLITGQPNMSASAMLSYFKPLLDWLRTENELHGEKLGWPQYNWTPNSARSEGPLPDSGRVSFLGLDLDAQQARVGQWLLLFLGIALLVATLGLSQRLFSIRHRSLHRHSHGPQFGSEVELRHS

SMILES	IC50 [1]	IC50 [2]
O=C(N[C@@H](Cc1ccccc1)P(=O)(O)C[C@H](Cc1cc(-c2ccccc2)no1)C(=O)N[C@@H](Cc1c[nH]c2ccccc12)C(=O)O)OCc1ccccc1 [Example 1, (5R,8R,11S)-5-Benzyl-6-hydroxy-11-(1H-indol-3-ylmethyl)-3,9-dioxo-1-phenyl-8-[(3-phenyl-5-isoxazolyl)methyl]-2-oxa-4,10-diaza-6-phosphadodecan-12-oic acid 6-oxide]	8 nM	36 nM
O=C(N[C@@H](Cc1ccccc1)P(=O)(O)C[C@H](Cc1cc(-c2ccccc2)no1)C(=O)N[C@@H](Cc1ccccc1)C(=O)O)OCc1ccccc1 [Example 2, (5R,8R,11S)-5,11-Dibenzyl-6-hydroxy-3,9-dioxo-1-phenyl-8-[(3-phenyl-5-isoxazolyl)methyl]-2-oxa-4,10-diaza-6-phosphadodecan-12-oic acid 6-oxide]	7.7 nM	3.8 nM
O=C(N[C@@H](Cc1ccccc1)P(=O)(O)C[C@H](Cc1cc(-c2ccccc2)no1)C(=O)N[C@@H](Cc1ccc(O)cc1)C(=O)O)OCc1ccccc1 [Example 3, (5R,8R,11S)-5-Benzyl-6-hydroxy-11-(4-hydroxybenzyl)-3,9-dioxo-1-phenyl-8-[(3-phenyl-5-isoxazolyl)methyl]-2-oxa-4,10-diaza-6-phosphadodecan-12-oic acid 6-oxide]	1.4 nM	1.4 nM
